The numbers were not newly measured in patent publication US20210052545A1, “COMPOSITIONS AND METHODS OF THEIR USE” (priority 2018, published 2021), which cites them from elsewhere.

For this data set the following is noted: human, in vivo.

Turning to `NC(=O)N1c2ccccc2C=Cc2ccccc21` [carbamezepine], the “increase in the risk of blood dyscrasias” value was “five- to eight” and the “patients showing a 25% decrease in white blood cell count” value was 7%.
